Results on 22 compounds are retold here after patent US20250171423A1, “PHARMACEUTICAL COMPOUNDS FOR THE TREATMENT OF COMPLEMENT MEDIATED DISORDERS” (Achillion Pharmaceuticals, Inc., priority 2020, published 2025).

This experiment concerns the target T1, Human complement C1s enzyme (Homo sapiens, UniProt P09871).
T1 construct: purified from human serum, Complement Technology, Inc; purchased Complement Technology, Inc; host or cells: human serum
T1 sequence (P09871 438-688 limits assumed): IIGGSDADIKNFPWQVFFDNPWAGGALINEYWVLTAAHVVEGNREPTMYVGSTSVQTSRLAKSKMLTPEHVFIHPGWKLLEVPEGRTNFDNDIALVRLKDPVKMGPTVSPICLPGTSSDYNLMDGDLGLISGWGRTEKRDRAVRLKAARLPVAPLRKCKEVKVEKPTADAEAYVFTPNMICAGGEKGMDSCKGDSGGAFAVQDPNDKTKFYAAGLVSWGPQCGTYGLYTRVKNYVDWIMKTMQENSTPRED
T1 sequence (P09871 16-437 partner limits assumed): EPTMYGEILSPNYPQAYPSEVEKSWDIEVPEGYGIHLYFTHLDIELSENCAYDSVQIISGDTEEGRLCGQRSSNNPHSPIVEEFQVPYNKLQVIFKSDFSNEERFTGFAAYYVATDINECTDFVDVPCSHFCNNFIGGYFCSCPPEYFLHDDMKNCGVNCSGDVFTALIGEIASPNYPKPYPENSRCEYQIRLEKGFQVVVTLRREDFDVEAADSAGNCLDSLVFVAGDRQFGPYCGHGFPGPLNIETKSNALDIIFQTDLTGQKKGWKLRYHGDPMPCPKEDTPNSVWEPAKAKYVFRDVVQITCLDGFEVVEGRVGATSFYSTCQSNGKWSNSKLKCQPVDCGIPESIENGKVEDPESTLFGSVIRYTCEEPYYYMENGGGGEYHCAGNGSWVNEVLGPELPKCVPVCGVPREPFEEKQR
In words: Human C1s Enzyme Assay. It is filed as biochemical. Conditions: human C1s 1.16 nM, 5 min preincubation, substrate Z-L-Lys-SBzl 100 μM, A405; read-out: C1s Protease Activity. Put shortly:
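IC50 values were fitted by nonlinear regression to rates measured as A405 every 30 s for 30 min. The thioester substrate Z-L-Lys-SBzl and Ellman's reagent were each at 100 μM. Serum-derived C1s at 1.16 nM final had 5 min of room-temperature preincubation with compound (pH 7.5 Tris buffer, 1 M NaCl).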
For `C[C@@H](NC(=O)[C@@H]1C[C@](F)(COCCCCCC(=O)O)CN1C(=O)CNC(=O)CCCOc1ccccc1)c1cc(C(=N)N)cs1` [Compound 234, 6-(((3R,5S)-5-(((R)-1-(4-carbamimidoylthiophen-2-yl)ethyl)carbamoyl)-3-fluoro-1-((4-phenoxybutanoyl)glycyl)pyrrolidin-3-yl)methoxy)hexanoic acid], the IC50 was below 0.1 µM.

`N=C(N)c1csc([C@@H](NC(=O)[C@@H]2CC3(CN2C(=O)CNC(=O)CCCOc2ccccc2)OCCO3)C2CC2)c1` [Compound 178, (S)-N-((S)-(4-carbamimidoylthiophen-2-yl)(cyclopropyl)methyl)-7-((4-phenoxybutanoyl)glycyl)-1,4-dioxa-7-azaspiro[4.4]nonane-8-carboxamide]: the IC50 is above 1 µM.

Regarding `CC(C)C[C@@H](NC(=O)[C@@H]1C[C@@H](OC(F)F)CN1C(=O)CNC(=O)c1ccc(Oc2ccccc2)cc1)c1cc(C(=N)N)cs1` [Compound 191, (2S,4R)-N-((R)-1-(4-carbamimidoylthiophen-2-yl)-3-methylbutyl)-4-(difluoromethoxy)-1-((4-phenoxybenzoyl)glycyl)pyrrolidine-2-carboxamide], the IC50 is above 1 µM.

For the compound `C[C@@]12C[C@@H]1N(C(=O)CNC(=O)c1ccc(Oc3ccccc3)cc1)[C@H](C(=O)NCc1cc3ccnc(N)c3s1)C2` [Compound 256, (1S,3S,5S)-N-((7-aminothieno[2,3-c]pyridin-2-yl)methyl)-5-methyl-2-((4-phenoxybenzoyl)glycyl)-2-azabicyclo[3.1.0]hexane-3-carboxamide], the IC50 is above 1 µM.

As to `N=C(N)c1csc(CNC(=O)[C@@H]2C[C@@H](C3CCCCC3)CN2C(=O)CNC(=O)c2ccc(Oc3ccccc3)cc2)c1` [Compound 61, (2S,4S)-N-((4-carbamimidoylthiophen-2-yl)methyl)-4-cyclohexyl-1-((4-phenoxy-benzoyl)glycyl)pyrrolidine-2-carboxamide], the IC50 was in the range of 0.1 to 1 µM.

Regarding `C[S@](=N)(=O)[C@@H]1C[C@@H](C(=O)NCc2cc(C(=N)N)cs2)N(C(=O)CNC(=O)c2ccc(Oc3ccccc3)cc2)C1` [Compound 68, (2S,4R)-N-((4-carbamimidoylthiophen-2-yl)methyl)-4-((S)-S-methylsulfonimidoyl)-1-((4-phenoxybenzoyl)glycyl)pyrrolidine-2-carboxamide], the IC50 was below 0.1 µM.

For the compound `N=C(N)c1csc(NC(=O)C[C@@H]2CCCN2C(=O)CNC(=O)c2ccc(Oc3ccccc3)cc2)c1` [Compound 40, N-{2-[(2S)-2-{[(4-carbamimidoylthiophen-2-yl)carbamoyl]methyl}pyrrolidin-1-yl]-2-oxoethyl}-4-phenoxybenzamide], the IC50 was above 1 µM.

On to `N=C(N)c1csc([C@H](NC(=O)[C@@H]2C[C@@H](OC(F)F)CN2C(=O)CNC(=O)c2ccc(Oc3ccccc3)cc2)C(N)=O)c1` (single isomer, unassigned) [Compound 215], for which the IC50 was above 1 µM.

On to `COC[C@@H](NC(=O)[C@@H]1C[C@@H](OC(F)F)CN1C(=O)CNC(=O)c1ccc(Oc2ccccc2)cc1)c1cc(C(=N)N)cs1` [Compound 213, (2S,4R)-N-((R)-1-(4-carbamimidoylthiophen-2-yl)-2-methoxyethyl)-4-(difluoromethoxy)-1-((4-phenoxybenzoyl)glycyl)pyrrolidine-2-carboxamide], for which the IC50 is above 1 µM.

For `N=C(N)c1csc(CNC(=O)[C@@H]2C[C@@H](Cc3ccc(C(F)(F)F)cc3)CN2C(=O)CNC(=O)c2ccc(Oc3ccccc3)cc2)c1` [Compound 17, (2S,4R)-N-((4-carbamimidoylthiophen-2-yl)methyl)-1-((4-phenoxybenzoyl)glycyl)-4-(4-(trifluoromethyl)benzyl)pyrrolidine-2-carboxamide], the IC50 is below 0.1 µM.

As for `C[C@@]12C[C@@H]1N(C(=O)CNC(=O)CCCOc1cccc(C(=O)O)c1)[C@H](C(=O)NCc1cc(C(=N)N)cs1)C2` [Compound 165, 3-(4-((2-((1S,3S,5S)-3-(((4-carbamimidoylthiophen-2-yl)methyl)carbamoyl)-5-methyl-2-azabicyclo[3.1.0]hexan-2-yl)-2-oxoethyl)amino)-4-oxobutoxy)benzoic acid], the IC50 is below 0.1 µM.

For `N=C(N)c1csc(CNC(=O)[C@@H]2CC3(CN2C(=O)CNC(=O)CCCOc2ccc(F)cc2)OCCO3)c1` [Compound 65, (S)-N-((4-carbamimidoylthiophen-2-yl)methyl)-7-((4-(4-fluorophenoxy)butanoyl)glycyl)-1,4-dioxa-7-azaspiro[4.4]nonane-8-carboxamide], the IC50 is below 0.1 µM.

As for `C[C@@]12C[C@@H]1N(C(=O)CNC(=O)CCOc1ccccc1)[C@H](C(=O)NCc1cc(C(=N)N)cs1)C2` [Compound 58, (1S,3S,5S)-N-((4-carbamimidoylthiophen-2-yl)methyl)-5-methyl-2-((3-phenoxy-propanoyl)glycyl)-2-azabicyclo[3.1.0]hexane-3-carboxamide], the IC50 was below 0.1 µM.

For the compound `CS(=O)(=O)[C@@H]1C[C@@H](C(=O)NCc2cc(C(=N)N)cs2)N(C(=O)CNC(=O)c2ccc(Oc3ccccc3)cc2)C1` [Compound 46, (2S,4R)-N-((4-carbamimidoylthiophen-2-yl)methyl)-4-(methylsulfonyl)-1-((4-phenoxybenzoyl)glycyl)pyrrolidine-2-carboxamide], the IC50 is below 0.1 µM.

As for `N=C(N)c1csc([C@H](NC(=O)[C@@H]2C[C@@H](OC(F)F)CN2C(=O)CNC(=O)c2ccc(Oc3ccccc3)cc2)c2ccccc2)c1` [Compound 200, (2S,4R)-N-((R)-(4-carbamimidoylthiophen-2-yl)(phenyl)methyl)-4-(difluoromethoxy)-1-((4-phenoxybenzoyl)glycyl)pyrrolidine-2-carboxamide], the IC50 was above 1 µM.

Turning to `N=C(N)c1csc(CNC(=O)[C@@H]2CC(c3nccs3)CN2C(=O)CNC(=O)c2ccc(Oc3ccccc3)cc2)c1` (stereo in doubt) [Compound 209, (2S,4R)-N-((4-carbamimidoylthiophen-2-yl)methyl)-1-((4-phenoxybenzoyl)glycyl)-4-(thiazol-2-yl)pyrrolidine-2-carboxamide], the IC50 is below 0.1 µM.

As for `CC(=O)NCCOC[C@@]12C[C@@H]1N(C(=O)CNC(=O)c1ccc(Oc3ccccc3)cc1)[C@H](C(=O)NCc1cc(C(=N)N)cs1)C2` [Compound 74, (1S,3S,5R)-5-((2-acetamidoethoxy)methyl)-N-((4-carbamimidoylthiophen-2-yl)methyl)-2-((4-phenoxybenzoyl)glycyl)-2-azabicyclo[3.1.0]hexane-3-carboxamide], the IC50 is below 0.1 µM.

In the case of `C[C@@H](NC(=O)[C@@H]1C[C@]2(COCCNC(=O)COCCOCCNC(=O)COCCOCCNC(=O)CC[C@H](NC(=O)CCCCCCCCCCCCCCCCC(=O)O)C(=O)O)C[C@@H]2N1C(=O)CNC(=O)CCCOc1ccccc1)c1cc(C(=N)N)cs1` [Compound 152, (S)-1-((1S,3S,5R)-3-(((R)-1-(4-carbamimidoylthiophen-2-yl)ethyl)carbamoyl)-2-((4-phenoxybutanoyl)glycyl)-2-azabicyclo[3.1.0]hexan-5-yl)-27-carboxy-6,15,24,29-tetraoxo-2,8,11,17,20-pentaoxa-5,14,23,28-tetraazahexatetracontan-46-oic acid], the IC50 is below 0.1 µM.

As for `C[C@@]12C[C@@H]1N(C(=O)CNC(=O)CCCOC1CCCCC1)[C@H](C(=O)NCc1cc(C(=N)N)cs1)C2` [Compound 117], the IC50 is below 0.1 µM.

Regarding `C[C@@H](NC(=O)[C@@H]1C[C@](F)(CF)CN1C(=O)CNC(=O)CCCOc1ccc(F)cc1)c1cc(C(=N)N)cs1` [Compound 99, (2S,4R)-N-[(1R)-1-(4-carbamimidoylthiophen-2-yl)ethyl]-4-fluoro-4-(fluoromethyl)-1-{2-[4-(4-fluorophenoxy)butanamido]acetyl}pyrrolidine-2-carboxamide], the IC50 is below 0.1 µM.

`COCCCC(=O)NCC(=O)N1[C@H]2C[C@@]2(C)C[C@H]1C(=O)NCc1cc(C(=N)N)cs1` [Compound 75, (1S,3S,5S)-N-((4-carbamimidoylthiophen-2-yl)methyl)-2-((4-methoxybutanoyl)-glycyl)-5-methyl-2-azabicyclo[3.1.0]hexane-3-carboxamide]: the IC50 fell in the range of 0.1 to 1 µM.

Turning to `C[C@@H](NC(=O)[C@@H]1C[C@]2(C)C[C@@H]2N1C(=O)CNC(=O)[C@H](CCOc1ccccc1)NC(=O)CCC(=O)O)c1cc(C(=N)N)cs1` [Compound 184, 4-(((S)-1-((2-((1S,3S,5S)-3-(((R)-1-(4-carbamimidoylthiophen-2-yl)ethyl)carbamoyl)-5-methyl-2-azabicyclo[3.1.0]hexan-2-yl)-2-oxoethyl)amino)-1-oxo-4-phenoxybutan-2-yl)amino)-4-oxobutanoic acid], the IC50 is below 0.1 µM.
